Test results published in patent US7285547B2, “Amidinophenylalanine derivatives as thrombin inhibitors” (LEK Pharmaceuticals d.d., priority 2000, dated 2007).

Assays:
[1] = test system: thrombus formation in a venous thrombosis model in the rat; assay: Stasis-induced thrombosis (venous thrombosis model); assay type: in vivo; settings: iv, i.v. 5 min before thrombosis induction, tissue factor plus stasis, read-out: Stasis-induced thrombosis (ED50 ± SD)
Description: 1. Stasis-Induced Thrombosis
Using a combination of thrombogenic challenge (0.045 ng/kg of tissue factor) and stasis, compounds were tested for their abillity to affect thrombus formation in a venous thrombosis model in the rat.
Thrombus formation by a combination of stasis and hypercoagulability was induced as described by Vogel et al. (Thromb. Res., 1989, 54, 399410). Male sprague-Dawley rats (250-300 g) were anaesthetized with sodium pentobarbitone (30 mg/kg, i.p.). The abdomen of the animals was surgically opened and after careful dissection, the vena cava was exposed and dissected free from surrounding tissue. Saline, or the various compounds were administered i.v. 5 min before thrombosis induction. […] Human tissue factor (0.045 ng/kg, i.v.) was injected into the dorsal vein of the penis. Ten seconds after the end of the injection, stasis were established by tightening the […] the proximal and then the distal. The abdominal cavity was provisionally closed and stasis was maintained for 20 minutes. The cavity was then reopened, the ligated segment was opened longitudinally and the thrombus formed was removed, rinsed, blotted on filter paper, dried overnight at 60° C. and weighed. Under these experimental conditions, control thrombus weight was 5.5±0.1 mg (n=15).

trypsin = molecular target: T1, trypsin (UniProt P00760); assay: Determination of trypsin Ki (chromogenic substrate S-2222); assay type: biochemical; settings: S-2222, 25° C.
T1 construct: Trypsin (6000 E/mg prot; Sigma): dissolved in distilled water to give a stock solution of 300 E/mL
T1 sequence (P00760 1-246): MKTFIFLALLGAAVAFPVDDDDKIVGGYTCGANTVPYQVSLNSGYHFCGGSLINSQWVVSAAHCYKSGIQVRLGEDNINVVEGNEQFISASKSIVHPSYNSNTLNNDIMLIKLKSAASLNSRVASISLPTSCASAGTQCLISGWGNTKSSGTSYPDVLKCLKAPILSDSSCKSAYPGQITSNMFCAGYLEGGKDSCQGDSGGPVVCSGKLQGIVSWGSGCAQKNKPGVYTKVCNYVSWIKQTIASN
Description: (§1) The enzyme inhibitory effect of the compounds can be identified by determination of inhibition constant Ki. It denotes the degree of dissociation of the enzyme-inhibitor complex. Low dissociation constant means high potency of inhibitor. Ki can be determined during reaction of the enzyme with a specific chromogenic substrate which under hydrolysis by the enzyme develops color. Reaction in time is recorded by spectrophotometry and Ki is calculated from kinetic parameters (Vmax, Km, reaction rate).
2. Determination of Trypsin Ki
The ability of a compound to act as an inhibitor of trypsin catalytic activity was assessed by determination of Ki.
50 μL of buffer, 50 μL of test compound in water (final concentrations from 50 to 300 μM) and 50 μL of trypsin (3 mE/mL f.c.) were incubated for 15 minutes at room temperature.
(§2) Trypsin activity was determined from the change in absorbance in the linear part of velocity graph. […] The Km for the substrate was determined under test conditions with at least 6 substrate concentrations varying around Km and calculated with the non-linear regression program Curve expert.

trypsin / thrombin = assay: Selectivity to thrombin (ratio of Ki for trypsin to Ki for thrombin); assay type: biochemical
Description: 3. Selectivity to Thrombin
By the use of other serine protease like trypsin with the appropriate chromogenic substrate, selectivity of inhibitors with respect to thrombin was determined. Selectivity of an inhibitor is expressed as a ratio of Ki for trypsin to Ki for thrombin.

human thrombin = molecular target: T2, human thrombin (Homo sapiens, UniProt P00734); assay: Determination of thrombin Ki (chromogenic substrate S-2238); assay type: biochemical
T2 construct: Human thrombin (308 NIH; Sigma); purchased Sigma
Description: as §1
1. Determination of Thrombin Ki
The ability of a compound to act as an inhibitor of human thrombin catalytic activity was assessed by determination of Ki.
A mixture of 50 μL of buffer, 50 μL of inhibitor in water (final concentrations from 10 to 100 μM) and 50 μL of thrombin (0.5 NIH U/mL f.c.) was incubated for 15 minutes at room temperature.
as §2, with “Thrombin” for “Trypsin”, “of the” for “of”, “under the” for “under”, “programme” for “program”

[2] = test system: normal pooled human plasma; assay: Activated partial thromboplastin time (aPTT) coagulation assay; assay type: biochemical; settings: concentration of inhibitor that doubled the clotting time
Description: (§3) The Anticoagulant effect of thrombin inhibitors was measured by thrombin time (TT), activated partial thromboplastin time (aPTT), and prothrombin time (PT) assays. Inhibitors were added to normal pooled human plasma over a range of concentrations and clotting was recorded in an automated coagulometer (Fibrintimer, Dade/Behring). The concentration of inhibitor that doubled the clotting time was determined for each assay.
2. Activated Partial Thromboplastin Time (aPTT)
Incubation of plasma with the optimal quantity of phospholipids and a surface activator leads to activation of factors of the intrinsic coagulation pathway. The addition of calcium ions triggers the coagulation process. The time of fibrin clot formation wass measured. aPTT was used as a screening test for coagulation disorders of the intrinsic coagulation pathway. It is prolonged due to intrinsic coagulation factors deficit or due to the presence of inhibitors.
b) Reagents • Pathromtin SL (Dade/Behring): silicon dioxide particles, vegetable phospholipids, sodium chloride (2.4 g/L), Hepes (14.3 g/L, pH 7.6), sodium azide (<1 g/L). […]
Inhibitor (10 μL working solution, concentrations from 5 μM to 100 μM) and pooled plasma (90 μL) were incubated at 37° C. for 5 minutes. […] The addition of calcium chloride (100 μL) triggered the coagulation process and clot formation was detected with a coagulometer in duplicate.

[3] = test system: normal pooled human plasma; assay: Thrombin time (TT) coagulation assay; assay type: biochemical; settings: concentration of inhibitor that doubled the clotting time
Description: as §3
In a plasma sample thrombin converts fibrinogen into fibrin and the clot is formed. The time for clot formation was measured. Thrombin time is prolonged due to disorders in fibrin polymerisation or due to the presence of thrombin inhibitors.
b) Reagents • Thrombin (Test Thrombin Reagent, 1.5 IU/mL, Dade/Behring): lyophilized bovine thrombin was dissolved in 5 mL of HEPES (25 mmol/L, pH 7.4). The reagent was warmed to 37° C. prior to the assay. • Normal pooled plasma: venous blood from 11 apparently healthy volunteers was collected (1 part 0.11 mol/L sodium citrate solution with 9 parts of blood) and centrifuged immediately at 2000×g for 30 minutes at 4° C. […]
Inhibitors (10 μL working solution, concentrations from 2.5 μM to 100 μM) and pooled plasma (90 μL) were incubated at 37° C. for 5 minutes and then thrombin (200 μL) was added. Clot formation was measured in a coagulometer in duplicate.

[4] = test system: normal pooled human plasma; assay: Prothrombin time (PT) coagulation assay; assay type: biochemical; settings: concentration of inhibitor that doubled the clotting time
Description: as §3
An optimal amount of thromboplastin and calcium are added to plasma sample and the time of fibrin clot formation wass measured. PT is a rapid, sensitive screening test for coagulation disorders of the extrinsic pathway. It is well suited for the induction and monitoring of oral anticoagulant therapy, for diagnosing genetic or acquired deficiencies in coagulation factors and checking the synthesis performance of the liver in hepatic diseases. PT is prolonged due to extrinsic coagulation factors deficit or due to the presence of inhibitors.
b) Reagents • Thromboplastin (Thromborel S, Dade/Behring): was dissolved in 4 mL of distilled water. […]
Inhibitor (10 μL working solution, concentrations from 5 μM to 100 μM) and pooled plasma (90 μL) were incubated at 37° C. for 5 minutes and then Thromborel S (200 μL) was added. Clot formation was measured with a coagulometer in duplicate.

[5] = test system: transection of the tail of rats; assay: Bleeding time (transection of the tail); assay type: in vivo; settings: rat tail transection, 1 mg/kg i.v. 5 min before transection
Description: The hemorrhagic risk associated to a treatment with selected compounds were determined using an experimental model of bleeding: transection of the tail of rats.
Bleeding time was determined by transection of the tail, 2 mm from the tip, of […] rats (30 mg/kg i.p.). The compounds were injected i.v. at the indicated doses 5 min before tail transection. Blood was carefully blotted every 15 s on a filter paper. Haemostasis was considered to be achieved when no more blood stain was observed over 1 min.

[6] = text comparison of SI 20025 compound with compound of the present invention

melting point [°C] | Ki (trypsin) [nM] | Ki (human thrombin; human thrombin, S-2238, 25° C.) [nM] | Structure (SMILES) | also measured
151 to 154 | – | – | Cl.N=C(N)c1cccc(CN(NS(=O)(=O)c2ccc3ccccc3c2)C(=O)N2CCCCCC2)c1 | –
151 to 154 | – | – | COc1ccc2cc(S(=O)(=O)NN(Cc3cccc(C(=N)N)c3)C(=O)N3CCC(C)CC3)ccc2c1.Cl | –
– | – | – | N=C(N)c1cccc(CN(NS(=O)(=O)c2ccc3ccccc3c2)C(=O)N2CCCCCC2)c1 [drawing 50] | ED50 [1]: 0.07 ± 0.005 mg/kg
– | > 68300 | 469 | CC1CCN(C(=O)N(Cc2cccc(C(=N)NO)c2)NS(=O)(=O)c2ccc3ccccc3c2)CC1 | Ki trypsin/Ki thrombin (trypsin / thrombin): 146
– | – | 11 | COc1ccc2cc(S(=O)(=O)NN(Cc3cccc(C(=N)N)c3)C(=O)N3CCC(C)CC3)ccc2c1 | aPTT [2]: 2.1 µM; TT [3]: 2.0 µM; PT [4]: 2.7 µM
– | 53 | 9 | COc1ccc2cc(S(=O)(=O)NN(Cc3cccc(C(=N)N)c3)C(=O)N3CCCCCC3)ccc2c1 | Ki trypsin/Ki thrombin (trypsin / thrombin): 5.84
154 to 156 | – | – | COc1ccc2cc(S(=O)(=O)NN(Cc3cccc(/C(N)=N/O)c3)C(=O)N3CCC(C)CC3)ccc2c1 [Example 17, N′-Hydroxy-3-({2-[(6-methoxy-2-naphthyl)sulfonyl]-1-[(4-methyl-1-piperidinyl)carbonyl]hydrazino}methyl)benzenecarboximidamide] | –
– | 17900 | – | COc1ccc2cc(S(=O)(=O)NN(Cc3cccc(C(=N)NO)c3)C(=O)N3CCCCCC3)ccc2c1 | Ki trypsin/Ki thrombin (trypsin / thrombin): 29
– | – | – | N/C(=N\O)c1cccc(CN(NS(=O)(=O)c2ccc3ccccc3c2)C(=O)N2CCCCCC2)c1 [drawing 49] | ED50 [1]: 0.29 ± 0.011 mg/kg; Bleeding (fold increase at 1 mg/kg) [5]: 3.3 fold increase
– | 32200 | 594 | N/C(=N\O)c1cccc(CN(NS(=O)(=O)c2ccc3ccccc3c2)C(=O)N2CCCCCC2)c1 [drawing 45] | Ki trypsin/Ki thrombin (trypsin / thrombin): 54
– | 143 | 5 | N=C(N)c1cccc(CN(NS(=O)(=O)c2ccc3ccccc3c2)C(=O)N2CCCCCC2)c1 [drawing 46] | –
151 to 154 | – | – | COc1ccc2cc(S(=O)(=O)NN(Cc3cccc(C(=N)N)c3)C(=O)N3CCCCCC3)ccc2c1.Cl | –
– | 112 | 4 | CC1CCN(C(=O)N(Cc2cccc(C(=N)N)c2)NS(=O)(=O)c2ccc3ccccc3c2)CC1 | –
– | – | – | N=C(N)Cc1ccc(CN(NS(=O)(=O)c2ccc3ccccc3c2)C(=O)N2CCCCCC2)cc1 [compound b] | Ki (human thrombin; [6]): 5 nM
173 to 175 | – | – | COc1ccc2cc(S(=O)(=O)NN(Cc3cccc(/C(N)=N/O)c3)C(=O)N3CCCCCC3)ccc2c1 [Example 23, 3-({1-(1-Azepanylcarbonyl)-2-[(6-methoxy-2-naphthyl)sulfonyl]hydrazino}methyl)-N′-hydroxybenzenecarboximidamide] | –
101 to 103 | – | – | CC1CCCCN1C(=O)N(Cc1cccc(/C(N)=N/O)c1)NS(=O)(=O)c1ccc2ccccc2c1 (stereo not shown) [Example 13, N′-hydroxy-3-{[1-[(2-methyl-1-piperidinyl)carbonyl]-2-(2-naphthylsulfonyl)hydrazino]methyl}benzenecarboximidamide] | –
172 to 175 | – | – | COc1ccc2cc(S(=O)(=O)NN(Cc3cccc(/C(N)=N/O)c3)C(=O)N3CCCCC3C)ccc2c1 (stereo not shown) [Example 15, N′-Hydroxy-3-({2-[(6-methoxy-2-naphthyl)sulfonyl]-1-[(2-methyl-1-piperidinyl)carbonyl]hydrazino}methyl)benzenecarboximidamide] | –
– | – | – | N=C(N)c1ccc(CN(NS(=O)(=O)c2ccc3ccccc3c2)C(=O)N2CCCCCC2)cc1 [compound a, reference compound] | Ki (human thrombin; [6]): 32 nM
